Data set [1] in a line: Optical characteristics, Table 3. It counts as physicochemical. As to conditions: for λmax, fl: 0.1 M phosphate buffer (pH 9) containing 1% DMSO; for Φfl: 0.1 M phosphate buffer (pH 9), 1% DMSO, standard 2-Me TokyoMagenta (0.42); for λmax, abs: 0.1 M phosphate buffer containing 1% DMSO.
Procedure: The measurement was performed in a 0.1 M phosphate buffer (pH 9) containing 1% DMSO. pKa was obtained from the absorbance measured in a phosphate buffer (pH 9) by single-phase or two-phase curve fitting. The quantum yield was obtained by using the quantum yield of 2-Me TokyoMagenta (0.42) in a 0.1 M phosphate buffer (pH 9) as the standard.
Data set [2] in a line: Optical characteristics, Table 2. It counts as physicochemical. As to conditions: phosphate buffer (pH 9). The method, then:
The measurement was performed at pH 9.

The nature of data set [3]: Comparison of absorption wavelengths at pH 3 and 9 in sodium phosphate buffer (Table 1). The arrangement: λmax: unit not given beside the values. It counts as physicochemical. As to conditions: for λmax: sodium phosphate buffer. The method, then:
The results of comparison of the absorption wavelengths of 2-Me TokyoMagenta and 2-Me TokyoGreen (9-(2′-methylphenyl)-xanthen-3-one) having oxygen atom at the 10-position of the xanthene ring are shown in FIG. 2 and Table 1. The measurement was performed at pH 3 and 9 in a sodium phosphate buffer.

For data set [4], the target named is T1, β-galactosidase (Escherichia coli, UniProt P00722). In words: Hydrolysis reaction by β-galactosidase monitored by fluorescence intensity over time. Type of data set: biochemical. As to conditions: 1 μM probe, 37° C., 0.1 M sodium phosphate buffer (pH 7.4), 0.1% DMSO, one unit β-galactosidase. From the text: As a control, 2-Me-4-OMe TokyoGreen βgal was used, which had been already widely used as a fluorescent probe for β-galactosidase measurement.
Advance of the hydrolysis reaction of 2-Me TokyoMagenta βgal by β-galactosidase was monitored by periodically measuring fluorescence intensity. As a control, 2-Me-4-OMe TokyoGreen βgal (9-(4′-methoxy-2′-methylphenyl)-6-(β-D-galactopyranosyloxy)-xanthen-3-one), which had been already widely used as a fluorescent probe for β-galactosidase measurement, was used. The reaction was performed at 37° C. in a 0.1 M sodium phosphate buffer (pH 7.4) containing 1 μM 2-Me TokyoMagenta βgal or 2-Me-4-OMe TokyoGreen βgal and 0.1% dimethyl sulfoxide. One unit (1.3 μg) of β-galactosidase was added 40 seconds afterward.
Target sequence in this assay (P00722 2-1024): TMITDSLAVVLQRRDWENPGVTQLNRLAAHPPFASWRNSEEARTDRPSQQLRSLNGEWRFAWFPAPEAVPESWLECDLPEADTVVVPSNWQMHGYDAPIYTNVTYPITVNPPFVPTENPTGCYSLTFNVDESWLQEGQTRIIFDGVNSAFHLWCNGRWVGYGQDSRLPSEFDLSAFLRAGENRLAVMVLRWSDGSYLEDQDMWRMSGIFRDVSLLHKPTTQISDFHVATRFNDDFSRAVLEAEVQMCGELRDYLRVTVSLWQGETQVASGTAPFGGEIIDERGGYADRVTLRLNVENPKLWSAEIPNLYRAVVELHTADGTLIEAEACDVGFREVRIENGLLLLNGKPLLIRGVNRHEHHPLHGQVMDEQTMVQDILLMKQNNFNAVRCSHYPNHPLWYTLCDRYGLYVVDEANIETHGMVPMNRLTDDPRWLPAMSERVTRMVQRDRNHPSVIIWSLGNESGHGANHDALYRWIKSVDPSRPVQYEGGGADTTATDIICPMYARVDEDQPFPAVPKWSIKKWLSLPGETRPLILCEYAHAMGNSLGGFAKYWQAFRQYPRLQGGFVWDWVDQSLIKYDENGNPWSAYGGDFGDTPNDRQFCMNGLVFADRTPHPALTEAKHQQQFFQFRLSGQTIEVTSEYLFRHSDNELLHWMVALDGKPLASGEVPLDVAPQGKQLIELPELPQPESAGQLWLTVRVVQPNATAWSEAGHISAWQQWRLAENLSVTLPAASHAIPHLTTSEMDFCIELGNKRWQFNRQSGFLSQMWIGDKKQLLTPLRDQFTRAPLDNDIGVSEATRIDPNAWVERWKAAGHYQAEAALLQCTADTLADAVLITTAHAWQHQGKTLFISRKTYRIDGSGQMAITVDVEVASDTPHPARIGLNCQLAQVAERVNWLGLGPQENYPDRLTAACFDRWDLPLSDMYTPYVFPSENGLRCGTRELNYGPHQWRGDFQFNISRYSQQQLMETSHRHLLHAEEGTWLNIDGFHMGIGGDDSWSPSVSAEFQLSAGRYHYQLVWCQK

Data set [5] concerns the target T1, β-galactosidase. Put plainly: Absorption spectra before and after treatment with β-galactosidase. It counts as biochemical. As to conditions: 0.1 M sodium phosphate buffer (pH 7.0), 0.1% DMSO. The method, then:
The characteristics of 2-Me TokyoMagenta βgal, which was designed as a fluorescent probe for β-galactosidase measurement, as an enzyme substrate and a fluorescent probe were evaluated. There are shown absorption spectra (FIG. 3, upper left graph) and fluorescence spectra (FIG. 3, upper right graph (excitation wavelength, 582 nm) and FIG. 3, lower left graph (excitation wavelength, 448 nm)) of 2-Me TokyoMagenta βgal measured before and after a treatment with β-galactosidase (6 units) in a 0.1 M sodium phosphate buffer (pH 7.0) containing 0.1% dimethyl sulfoxide. The λmax values measured before and after the reaction were 448 nm (before the reaction), and 582 nm (after the reaction), respectively.
Target sequence in this assay (P00722 2-1024): as above

In data set [6] the target is T1, β-galactosidase. In words: Measurement of intracellular β-galactosidase in HEK293 cells (lacZ(+) or lacZ(−)). As to conditions: 10 μM, 37° C., 30 minutes, excitation 580 nm, detection 600 to 620 nm. The arrangement: expressed in transfected cells; host or cells: HEK293 lacZ(+). It counts as cell-based. The protocol:
The bars shown in the photographs indicate 30 μm.
2-Me TokyoMagenta βgal was introduced into cells, and it was confirmed that it functioned as a fluorescent probe for β-galactosidase measurement. The HEK293 cells (lacZ(+) or lacZ(−)) were incubated with 10 μM 2-Me TokyoMagenta βgal at 37° C. for 30 minutes in the Dulbecco's modified Eagle medium (DMEM) containing 0.1% dimethyl sulfoxide, and fluorescence spectrum was measured with an excitation wavelength of 580 nm and detection wavelength of 600 to 620 nm.
Target sequence in this assay (P00722 whole entry): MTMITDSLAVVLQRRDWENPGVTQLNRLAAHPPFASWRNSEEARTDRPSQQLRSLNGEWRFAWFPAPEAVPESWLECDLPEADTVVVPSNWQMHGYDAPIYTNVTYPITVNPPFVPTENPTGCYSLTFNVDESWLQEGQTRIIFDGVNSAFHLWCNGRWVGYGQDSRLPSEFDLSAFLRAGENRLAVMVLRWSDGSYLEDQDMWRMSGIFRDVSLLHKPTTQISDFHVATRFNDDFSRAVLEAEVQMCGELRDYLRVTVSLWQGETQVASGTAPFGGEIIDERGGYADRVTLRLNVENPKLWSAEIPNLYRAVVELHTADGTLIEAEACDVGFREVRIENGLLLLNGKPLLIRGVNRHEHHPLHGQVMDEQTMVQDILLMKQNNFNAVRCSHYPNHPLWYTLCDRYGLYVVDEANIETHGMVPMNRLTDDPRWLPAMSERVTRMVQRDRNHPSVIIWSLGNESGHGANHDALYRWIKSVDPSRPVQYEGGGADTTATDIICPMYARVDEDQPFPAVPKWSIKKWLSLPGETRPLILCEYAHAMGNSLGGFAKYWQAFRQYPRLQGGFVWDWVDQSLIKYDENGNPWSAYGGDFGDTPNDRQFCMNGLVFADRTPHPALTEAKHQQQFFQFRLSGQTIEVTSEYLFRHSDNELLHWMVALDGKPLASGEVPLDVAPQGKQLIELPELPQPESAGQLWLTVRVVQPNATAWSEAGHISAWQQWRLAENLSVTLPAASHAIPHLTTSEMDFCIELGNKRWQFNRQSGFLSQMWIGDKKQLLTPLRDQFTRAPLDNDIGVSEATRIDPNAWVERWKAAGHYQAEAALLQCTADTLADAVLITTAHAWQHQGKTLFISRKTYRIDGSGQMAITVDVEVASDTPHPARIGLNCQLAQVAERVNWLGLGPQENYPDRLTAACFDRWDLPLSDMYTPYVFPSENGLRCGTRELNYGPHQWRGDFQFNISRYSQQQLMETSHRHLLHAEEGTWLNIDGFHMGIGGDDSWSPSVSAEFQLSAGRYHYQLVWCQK

Data set [7] in a line: Absorption and fluorescence profiles at various pH values (Example 2). It counts as physicochemical. The following applies: for maximal absorption wavelength: 1 μM in 0.1 M phosphate buffer, 1% DMSO. The protocol: The measurement was performed with changing pH. In this specification, Me means methyl group. […] The measurement was performed by using a 1 μM solution of 2-Me TokyoMagenta dissolved in a 0.1 M phosphate buffer containing 1% dimethyl sulfoxide (DMSO).
Absorption and fluorescence profiles of 2-Me TokyoMagenta obtained in the step (g) mentioned above were measured at various pH values. […] It is considered that 2-Me TokyoMagenta exists in an equilibrated state of the non-dissociated form (neutral form) and the dissociated form (anion form) mentioned below depending on pH.

Data set [8] can be described thus: Fluorescence profiles at various pH values, excitation 471 nm (Example 6). It counts as physicochemical. As to conditions: shift of pH from the acidic side to the alkaline side. The protocol: The measurement was performed with changing pH (excitation wavelength, 471 nm) by using a 1 μM solution of 2-Me TokyoMagenta dissolved in a 0.1 M phosphate buffer containing 1% dimethyl sulfoxide (DMSO).
Absorption and fluorescence profiles of 2-Me TokyoMagenta obtained in the step (g) mentioned above were measured at various pH values (excitation wavelength, 471 nm). It was confirmed that, with the shift of pH from the acidic side to the alkaline side, fluorescence intensity decreased around 590 nm, and fluorescence intensity increased around 560 nm.

A further data set can be described thus: physchem. It counts as physicochemical.

By pKa is commonly meant the negative logarithm of the acid dissociation constant.

Procedure for physchem: In the table, the items attached with the letter a were measured in a phosphate buffer (pH 9), and the item attached with the letter b was measured in a 0.1 M phosphate buffer containing 1% DMSO.
The measurement was performed in a 0.1 M phosphate buffer (pH 9) containing 1% DMSO. pKa was obtained from the absorbance measured in a phosphate buffer (pH 9) by single-phase or two-phase curve fitting.

As to `C[Si]1(C)C2=C(Cl)C(=O)C=CC2=C(c2ccccc2C(=O)O)c2ccc(O)c(Cl)c21` [2-COOH DCTM], in [1], the “λmax, fl” value came out at 607 nm and the Φfl was found to be 0.48. Besides, the “λmax, abs” value in data set [1] (pH 9) turned out to be 591 nm.

`C[Si]1(C)C2=C(F)C(=O)C=CC2=C(c2ccccc2C(=O)O)c2ccc(O)c(F)c21` [2-COOH DFTM]: in data set [1], the “λmax, fl” value turned out to be 596 nm and the Φfl amounted to 0.54. Besides, the “λmax, abs” value in [1] (pH 9) is listed as 581 nm.

Regarding `C[Si]1(C)C2=CC(=O)C=CC2=C(c2ccccc2C(=O)O)c2ccc(O)cc21` [2-COOH TM], in data set [1], the “λmax, fl” value is 598 nm and the Φfl is given as 0.38. The “λmax, abs” value in [1] (pH 9) was found to be 582 nm.

In the case of `Cc1ccccc1C1=C2C=CC(=O)C(Cl)=C2[Si](C)(C)c2c1ccc(O)c2Cl` [2-Me DCTM], in [1], the “λmax, fl” value is reported as 607 nm and the Φfl came out at 0.48. Moreover, in [1] (pH 3), the “λmax, abs” value was 477 nm. In addition, the “λmax, abs” value in data set [1] (pH 9) stood at 595 nm.

Regarding `Cc1ccccc1C1=C2C=CC(=O)C(F)=C2[Si](C)(C)c2c1ccc(O)c2F` [2-Me DFTM], in data set [1], the “λmax, fl” value turned out to be 598 nm and the Φfl worked out at 0.57. Besides, the “λmax, abs” value in data set [1] (pH 3) came to 465 nm. For the same compound, the “λmax, abs” value in data set [1] (pH 9) came to 583 nm.

Regarding `CC[Si]1(CC)C2=CC(=O)C=CC2=C(c2ccccc2C)c2ccc(O)cc21` [2-Me DiEtTM], in data set [2], the Φfl was 0.48, the λabs is 582 nm and the λfl is given as 601 nm.

Consider `Cc1ccccc1-c1c2ccc(=O)cc-2oc2ccccc12` [2-Me TokyoGreen, 9-(2′-methylphenyl)-xanthen-3-one, reference compound], for which the λmax in data set [3] (Anion form (pH 9)) worked out at 492; in [3] (Neutral form (pH 3)) it was 439.

As to `Cc1ccccc1C1=C2C=CC(=O)C=C2[Si](C)(C)c2cc(O[C@@H]3O[C@H](CO)[C@H](O)[C@H](O)[C@H]3O)ccc21` [2-Me TokyoMagenta βgal], on β-galactosidase [4], the “fluorescence response on hydrolysis by β-galactosidase” value is reported as “increase of fluorescence intensity due to red shift”. In addition, at β-galactosidase [5] (after β-galactosidase (6 units)), the “λmax after the reaction” value is recorded as 582 nm. For the same compound, the “λmax before the reaction” value at β-galactosidase [5] (before β-galactosidase (6 units)) worked out at 448 nm. For the same compound, the fluorescence in cells result at β-galactosidase [6] (HEK293 lacZ(+) cells) is on record as “fluorescence emitted by the fluorescent probe hydrolyzed by β-galactosidase was confirmed”; on β-galactosidase [6] (HEK293 lacZ(−) cells), “fluorescence was not observed”.

On to `Cc1ccccc1C1=C2C=CC(=O)C=C2[Si](C)(C)c2cc(O)ccc21` [2-Me TokyoMagenta], for which the λmax in [3] (Anion form (pH 9)) stood at 582; in [3] (Neutral form (pH 3)), 471. The “absorption wavelength change with change of pH” value in data set [3] (compared with 2-Me TokyoGreen, pH 3 and 9) is recorded as “larger absorption wavelength change”. For the same compound, the maximal absorption wavelength result is on record as “around 471 nm” in data set [7] (acidic side of pH) and “around 582 nm” in data set [7] (alkaline side of pH). In addition, the Φfl in data set [7] (anion form) was determined as 0.42; in data set [7] (neutral form) it was 0.10; in data set [1], 0.42; in data set [2] it was 0.42. The ε in [7] (anion form) worked out at 110000; in data set [7] (neutral form), 29000. Moreover, in data set [7] (shift of pH from the acidic side to the alkaline side), the “fluorescence emission with excitation light of 550 nm” value was “significantly increased”. For the same compound, the “λmax, fl” value in data set [1] turned out to be 598 nm. In addition, the “λmax, abs” value in data set [1] (pH 3) was determined as 472 nm; in [1] (pH 9) it was 582 nm. Moreover, in data set [2], the λabs is 582 nm. The compound also displayed a λfl in data set [2] of 598 nm. In addition, the “fluorescence intensity around 560 nm” value in data set [8] was “increased”. Also, the “fluorescence intensity around 590 nm” value in data set [8] is listed as “decreased”. Besides, the pKa in “physchem” was determined as 6.8.

Regarding `COc1ccc(-c2c3ccc(=O)cc-3oc3cc(O[C@@H]4O[C@H](CO)[C@H](O)[C@H](O)[C@H]4O)ccc23)c(C)c1` [2-Me-4-OMe TokyoGreen βgal, 9-(4′-methoxy-2′-methylphenyl)-6-(β-D-galactopyranosyloxy)-xanthen-3-one, reference compound], at β-galactosidase [4], the “fluorescence response on hydrolysis by β-galactosidase” value is reported as “fluorescence was generated by cancellation of PET”.

For the origin of these results see US9688857B2, “Fluorescent probe” (THE UNIVERSITY OF TOKYO, priority 2011, dated 2017).
